Data as given in US20110178104A1, “Anti-Heparin Compounds” (POLYMEDIX INC., priority 2010, published 2011).
≈ marks a conversion by molar mass, not a printed value. Like-named read-outs stand apart in the source and are kept apart here. Starred links: 1 amine or outer side, 2 acyl side, 3 side chain; linkers in the order of their positions; H or OH if unused. Non-standard residues stand in square brackets, D forms with d. Residues, ends and D or L forms follow the SMILES beside them. *: point of attachment. NH(3-CONH2-4-OMe-phenyl) = COc1ccc(N*)cc1C(N)=O; 3Abz(6-OMe) = COc1ccc(N[*:1])cc1C(=O)[*:2]; X1 = O=C(O)COc1ccc(N[*:1])cc1C(=O)[*:2]

What was measured:
enoxaparin = experiment: FXa amidolytic assay (Example 10), enoxaparin; details: read-out: Enox FXa EC50; enoxaparin 0.1 ug/ml; human antithrombin, bovine Factor Xa
[1] = Cytotoxicity colorimetric assay, HepG2; format: cell-based, human; details: human, HepG2 cells, one hour in serum-free media
Experimental: (§1) This assay measures the bioreduction of a novel tetrazolium compound to a soluble formazan product by viable cells. HepG2 cells were seeded in 96 well plates at 3×10^4 cells/well in MEM medium with 10% fetal bovine serum (FBS) 24 hours prior to use. NIH/3T3 cells were seeded in 96 well plates at 2×10^4 cells/well in DMEM medium with 10% bovine calf serum (BCS) 24 hours prior to use. Cell monolayers were rinsed in serum-free media and incubated for one hour with test agent in serum-free media. After incubation, the media was replaced with serum supplemented media and live cells were measured using the Cell Titer 96 Aqueous […] Assay kit (Promega, Madison, Wis.). EC50 values were determined using a four parameter logistic equation: Y=Bottom+(Top-Bottom)/(1+10̂((LogEC50-X)*HillSlope)).

UFH = experiment: FXa amidolytic assay (Example 10), UFH; details: read-out: Heparin FXa uM EC50; UFH 0.03 units/mL; human antithrombin, bovine Factor Xa
Unfractionated heparin = experiment: aPTT clotting assay, UFH 0.4 U/mL in plasma (Example 10); format: biochemical; details: unfractionated heparin 0.4 U/mL in plasma; aPTT clotting
Experimental: aPTT clotting Assay: Unfractionated heparin was mixed with plasma at a final concentration of 0.4 U/mL (or concentration which increases aPTT time to between 120 and 300 seconds). […] The ACL Elite Hemostasis analyzer (Beckman Coulter™) was used to add aPTT reagent (HemosIL SynthASil) to supplemented plasma. Clotting was initiated by addition of CaCl2 and time to clot was recorded.

tinzaparin = experiment: FXa amidolytic assay (Example 10), tinzaparin; details: read-out: Tinzap FXa EC50; tinzaparin 0.1 ug/ml; human antithrombin, bovine Factor Xa
[2] = tested on: isolated human erythrocytes; experiment: cells; format: cell-based; details: Homo sapiens, Erythrocyte, 1 h, read-out: Hemolysis EC50
Outline: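 Test agent was serially diluted two-fold over 0.48–1000 µg/ml and incubated for 1 h at 37 °C with shaking, using erythrocytes from pooled human blood diluted in Tris-buffered saline pH 7.4 (0.22% stock). Hemolysis was measured as supernatant absorbance at 405 nm. A four-parameter logistic equation gave EC50, and melittin served as the positive control.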

fondaparinux = experiment: FXa amidolytic assay (Example 10), fondaparinux; details: for EC50: read-out: Fondap FXa EC50, fondaparinux 0.02 μg/mL, human antithrombin, bovine Factor Xa
[3] = Cytotoxicity colorimetric assay, NIH/3T3; format: cell-based, mouse; details: mouse, NIH/3T3 cells, one hour in serum-free media
Experimental: as §1

| SMILES | EC50 (enoxaparin) | EC50 (UFH) | EC50 (Unfractionated heparin) | EC50 (tinzaparin) | EC50 (fondaparinux) | EC50 at 1 h [1] | EC50 ([2]; human RBC, 1 hour at 37° C.) | EC50 at 1 h [3] | EC50 [2] | Potent LMWH-antagonists with superior anti-fondaparinux activity (summary) (fondaparinux) |
| --- | --- | --- | --- | --- | --- | --- | --- | --- | --- | --- |
| COc1ccc(NC(=O)[C@H](CCCCN)NC(=O)c2cc(NC(=O)[C@H](CCCCN)NC(=O)c3cc(NC(=O)[C@H](CCCCN)NC(=O)c4cc(NC(=O)[C@H](CCCCN)NC(=O)Cc5ccccc5)ccc4OC)ccc3OC)ccc2OC)cc1C(N)=O [Compound 355] | 95 nM | 0.147 µM | 1410 nM | 67 nM | 800 nM | 133 µg/mL (≈ 107 µM) | – | 52 µg/mL (≈ 41.8 µM) | > 1000 µg/mL | – |
| COc1ccc(NC(=O)[C@H](CCCCN)NC(=O)c2cc(NC(=O)[C@H](CCCCN)NC(=O)c3cc(NC(=O)[C@H](CCCCN)NC(=O)c4cc(NC(=O)[C@H](CCCCN)NC(=O)c5ccccc5)ccc4OC)ccc3OC)ccc2OCC(=O)O)cc1C(N)=O [Compound 354] | 117 nM | 0.214 µM | 2200 nM | 109 nM | 202 nM | > 1000 µg/mL | – | > 1000 µg/mL | > 1000 µg/mL | superior anti-fondaparinux activity |
| COc1ccc(NC(=O)[C@H](CCCCN)NC(=O)c2cc(NC(=O)[C@H](CCCCN)NC(=O)c3cc(NC(=O)[C@H](CCCCN)NC(=O)c4cc(NC(=O)[C@H](CCCCN)NC(=O)c5ccccc5)ccc4OC)ccc3OC)ccc2OC)cc1C(N)=O [Compound 353] | 123 nM | 0.198 µM | 1630 nM | 104 nM | 407 nM | > 1000 µg/mL | – | ~100 µg/mL (≈ 81.3 µM) | > 1000 µg/mL | – |
| COc1ccc(NC(=O)[C@H](CCCCN)NC(=O)c2cc(NC(=O)[C@H](CCCCN)NC(=O)c3cc(NC(=O)[C@H](CCCCN)NC(=O)c4cc(NC(=O)[C@H](CCCCN)NC(=O)[C@@H](N)Cc5c[nH]c6ccccc56)ccc4OC)ccc3OC)ccc2OCC(=O)O)cc1C(N)=O [Compound 352] (H-WK[3Abz(6-OMe)]K[3Abz(6-OMe)]K[X1]K-{NH(3-CONH2-4-OMe-phenyl)}) | 299 nM | 0.287 µM | 2270 nM | 162 nM | 934 nM | 758 µg/mL (≈ 559 µM) | > 1000 µg/mL | > 1000 µg/mL | – | – |
| COc1cc(OC)c(C(=O)N[C@H]2CC[C@H](NC(=O)c3cccc(C(=O)N[C@H]4CC[C@H](NC(=O)c5cc(C(=O)NCCN)c(OC)cc5OC)CC4)n3)CC2)cc1C(=O)NCCN [Compound 397] | 985 nM | – | 1150 nM | 955 nM | 2630 nM | 616 µg/mL (≈ 717 µM) | > 1000 µg/mL | 408 µg/mL (≈ 475 µM) | – | – |
| COc1cc(OC)c(C(=O)Nc2ccc(NC(=O)c3ccc(OCCCCCN)cc3OCCCCCN)cc2)cc1C(=O)Nc1ccc(NC(=O)c2ccc(OCCCCCN)cc2OCCCCCN)cc1 [Compound 411] | 96 nM | – | 1150 nM | 123 nM | 61 nM | 590 µg/mL (≈ 579 µM) | > 1000 µg/mL | 86 µg/mL (≈ 84.4 µM) | – | superior anti-fondaparinux activity |
| COc1cc(OC)c(C(=O)Nc2ccc(NC(=O)c3cc(C(=O)NCCN(C)C)c(OCCCCCN)cc3OCCCCCN)cc2)cc1C(=O)Nc1ccc(NC(=O)c2cc(C(=O)NCCN(C)C)c(OCCCCCN)cc2OCCCCCN)cc1 [Compound 410] | 56 nM | – | 640 nM | 68 nM | 41 nM | 250 µg/mL (≈ 200 µM) | – | 97.5 µg/mL (≈ 78.1 µM) | > 1000 µg/mL | – |

Second part, led by results:

| EC50 (enoxaparin) | EC50 (UFH) | EC50 (Unfractionated heparin) | EC50 (tinzaparin) | EC50 (fondaparinux) | SMILES | EC50 at 1 h [1] | EC50 ([2]; human RBC, 1 hour at 37° C.) | EC50 at 1 h [3] | EC50 [2] | Potent LMWH-antagonists with superior anti-fondaparinux activity (summary) (fondaparinux) |
| --- | --- | --- | --- | --- | --- | --- | --- | --- | --- | --- |
| 198 nM | 0.772 µM | 8810 nM | 410 nM | 146 nM | COc1cc(OC)c(C(=O)N[C@H]2CC[C@H](NC(=O)c3cc(C(=O)N[C@H]4CC[C@H](NC(=O)c5cc(C(=O)NCCN)c(OC)cc5OC)CC4)c(OC)cc3OC)CC2)cc1C(=O)NCCN [Compound 346] | > 1000 µg/mL | > 1000 µg/mL | > 1000 µg/mL | – | – |
| 90 nM | 0.189 µM | 1390 nM | 73 nM | 115 nM | COC(=O)c1ccc(C(=O)N[C@@H](CCCCN)C(=O)Nc2ccc(OC)c(C(=O)N[C@@H](CCCCN)C(=O)Nc3ccc(OC)c(C(=O)N[C@@H](CCCCN)C(=O)Nc4ccc(OC)c(C(=O)N[C@@H](CCCCN)C(=O)Nc5ccc(OC)c(C(N)=O)c5)c4)c3)c2)cc1 [Compound 359] | > 1000 µg/mL | > 1000 µg/mL | > 1000 µg/mL | – | – |
| 89 nM | 0.164 µM | 1690 nM | 71 nM | 180 nM | COc1cc(OC)c(C(=O)N[C@H]2CC[C@@H](NC(=O)c3ccc(OCCCCCNC(=N)N)cc3OCCCCCNC(=N)N)CC2)cc1C(=O)N[C@H]1CC[C@@H](NC(=O)c2ccc(OCCCCCNC(=N)N)cc2OCCCCCNC(=N)N)CC1 [Compound 380] | 81.3 µg/mL (≈ 67.8 µM) | > 1000 µg/mL | 43.2 µg/mL (≈ 36 µM) | – | – |
| 2530 nM | – | 4770 nM | 2040 nM | 13900 nM | COc1cc(OC)c(C(=O)N[C@H]2CC[C@H](NC(=O)c3cccc(C(=O)N[C@H]4CC[C@H](NC(=O)c5cc(C(=O)NCCN)c(OC)cc5OC)CC4)c3)CC2)cc1C(=O)NCCN [Compound 398] | 1090 µg/mL (≈ 1270 µM) | > 1000 µg/mL | > 1000 µg/mL | – | – |
| > 5000 nM | > 20 µM | > 10000 nM | > 5000 nM | > 10000 nM | COc1cc(OC)c(C(=O)NC2CCC(NC(=O)c3cc(C(=O)NCCN)c(OC)cc3OC)CC2)cc1C(=O)O (stereo not drawn) [Compound 347] | > 1000 µg/mL | – | > 1000 µg/mL | – | – |
| 707 nM | – | 2080 nM | 708 nM | 1280 nM | COc1cc(OC)c(C(=O)N[C@H]2CC[C@H](NC(=O)c3cc(C(=O)N[C@H]4CC[C@H](NC(=O)c5cc(C(=O)NCCN)c(OC)cc5OC)CC4)c(OCC(N)=O)cc3OC)CC2)cc1C(=O)NCCN [Compound 390] | 892 µg/mL (≈ 927 µM) | > 1000 µg/mL | 986 µg/mL (≈ 1020 µM) | – | – |
| 1220 nM | – | 5090 nM | 1180 nM | 5510 nM | COc1cc(OC)c(C(=O)N[C@H]2CC[C@H](NC(=O)c3cncc(C(=O)N[C@H]4CC[C@H](NC(=O)c5cc(C(=O)NCCN)c(OC)cc5OC)CC4)c3)CC2)cc1C(=O)NCCN [Compound 400] | 1300 µg/mL (≈ 1520 µM) | > 1000 µg/mL | > 1000 µg/mL | – | – |
| 5810 nM | – | 5520 nM | 3180 nM | 5860 nM | COc1cc(OC)c(C(=O)N[C@H]2CC[C@H](NC(=O)c3cc(C(=O)N[C@H]4CC[C@H](NC(=O)c5cc(C(=O)NCCN)c(OC)cc5OC)CC4)ncn3)CC2)cc1C(=O)NCCN [Compound 402] | 864 µg/mL (≈ 1000 µM) | > 1000 µg/mL | 753 µg/mL (≈ 875 µM) | – | – |
| 147 nM | 0.291 µM | 627 nM | 128 nM | 146 nM | COc1ccc(NC(=O)[C@H](CCCCN)NC(=O)c2cc(NC(=O)[C@H](CCCCN)NC(=O)c3cc(NC(=O)[C@H](CCCCN)NC(=O)c4cc(NC(=O)[C@H](CCCCN)NC(=O)c5c[nH]c6ccccc56)ccc4OC)ccc3OC)ccc2OCC(=O)O)cc1C(N)=O [Compound 350] | 425 µg/mL (≈ 324 µM) | > 1000 µg/mL | 150 µg/mL (≈ 114 µM) | – | – |
| 108 nM | 0.213 µM | 2020 nM | 90 nM | 129 nM | COc1ccc(NC(=O)[C@H](CCCCN)NC(=O)c2cc(NC(=O)[C@H](CCCCN)NC(=O)c3cc(NC(=O)[C@H](CCCCN)NC(=O)c4cc(NC(=O)[C@H](CCCCN)NC(=O)c5c[nH]c6ccccc56)ccc4OC)ccc3OC)ccc2OC)cc1C(N)=O [Compound 349] | 236 µg/mL (≈ 186 µM) | > 1000 µg/mL | 108 µg/mL (≈ 85.1 µM) | – | – |
| 464 nM | 0.13 µM | 1620 nM | 95 nM | > 10000 nM | COc1cc(OCC(N)=O)c(C(=O)N[C@H]2CC[C@H](NC(=O)c3cc(C(=O)NCCN(C)C)c(OCCCCCN)cc3OCCCCCN)CC2)cc1C(=O)N[C@H]1CC[C@H](NC(=O)c2cc(C(=O)NCCN(C)C)c(OCCCCCN)cc2OCCCCCN)CC1 [Compound 379] | > 1000 µg/mL | > 1000 µg/mL | 650 µg/mL (≈ 499 µM) | – | – |
